For 18 compounds, IC50 and EC50 results are on record in patent US20250320213A1, “Nitrogen-Containing Heterocyclic Compounds” (Pfizer Inc., priority 2024, published 2025).

SMILES strings stand for the structures.

The test system of assay [1] is CCL17 secretion in peripheral human whole blood. Nature of the assay: Human Whole Blood (HWB) CCL17 TR-FRET Assay (IL-13 stimulated CCL17 secretion). The assay is classed as cell-based. The settings on record: human whole blood, IL-13 stimulated. In outline:
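Heparinized human whole blood was preincubated with compound (11-point, 3-fold series) for 2 h at 37°C, then stimulated with IL-13 (10 ng/mL final) for 48 h. Serum CCL17 was measured by TR-FRET sandwich immunoassay (665/615 nm ratio) after 16 h at room temperature, giving IC50.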

The target in assay [2] is T1, STAT6 (Homo sapiens, UniProt P42226).
T1 construct: stably transfected HaCaT keratinocyte cell line, which expresses NanoLuc luciferase reporter gene under the transcriptional control of the STAT6 responsive promoter; endogenous in cells; host or cells: HaCaT keratinocyte reporter cell line (stably transfected with a NanoLuc reporter)
T1 sequence (P42226 1-847): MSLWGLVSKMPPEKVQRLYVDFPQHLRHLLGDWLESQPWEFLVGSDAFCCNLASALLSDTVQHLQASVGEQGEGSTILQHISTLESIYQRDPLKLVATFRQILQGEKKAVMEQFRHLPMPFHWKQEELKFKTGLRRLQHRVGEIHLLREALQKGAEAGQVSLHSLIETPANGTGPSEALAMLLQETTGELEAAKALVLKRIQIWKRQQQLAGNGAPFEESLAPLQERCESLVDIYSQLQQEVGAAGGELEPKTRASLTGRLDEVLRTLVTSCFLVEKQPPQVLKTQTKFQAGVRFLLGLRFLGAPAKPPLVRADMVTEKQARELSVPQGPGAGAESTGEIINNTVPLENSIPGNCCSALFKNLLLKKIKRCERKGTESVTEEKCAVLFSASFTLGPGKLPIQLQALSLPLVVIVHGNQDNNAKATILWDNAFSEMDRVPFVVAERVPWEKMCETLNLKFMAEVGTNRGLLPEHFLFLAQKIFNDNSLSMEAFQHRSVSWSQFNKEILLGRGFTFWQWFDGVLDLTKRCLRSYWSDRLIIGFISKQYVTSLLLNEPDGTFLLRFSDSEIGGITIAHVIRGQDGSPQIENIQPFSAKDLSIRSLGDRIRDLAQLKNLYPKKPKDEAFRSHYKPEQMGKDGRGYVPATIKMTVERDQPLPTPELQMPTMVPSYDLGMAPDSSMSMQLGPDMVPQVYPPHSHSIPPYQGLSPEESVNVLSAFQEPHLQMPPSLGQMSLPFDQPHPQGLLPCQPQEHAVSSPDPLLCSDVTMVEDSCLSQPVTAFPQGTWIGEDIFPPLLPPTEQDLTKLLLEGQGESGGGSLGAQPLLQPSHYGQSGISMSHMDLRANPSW
Nature of the assay: STAT6 Reporter Luciferase Assay (IL-13 stimulated HaCaT keratinocyte NanoLuc reporter cells). The assay is classed as cell-based. The settings on record: IL-13 stimulated HaCaT STAT6 NanoLuc reporter cells; read-out: Reporter EC50. In outline: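 HaCaT IL-13Ra2-promoter NanoLuc reporter; cpd 2 h 37 °C in DMEM/2% HI FBS; IL-13 0.12 nM final, 4 h; Nano-Glo luminescence.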

By IC50 is commonly meant the midpoint of a concentration-inhibition curve. A word on the EC50: it is the midpoint of the concentration-response curve. For the compound `CC(C)n1nc(C(=O)NCc2ccc(NC(=O)N(C)CC(F)F)cc2)c2c1CCN(c1ccc(C(=O)N(C)C)cn1)C2` [Example 189, N-(4-(3-(2,2-difluoroethyl)-3-methylureido)benzyl)-5-(5-(dimethylcarbamoyl)pyridin-2-yl)-1-isopropyl-4,5,6,7-tetrahydro-1H-pyrazolo[4,3-c]pyridine-3-carboxamide], it took 95 nM to reach half-maximal inhibition in assay [1] (Homo sapiens, 48 h) (IC50). Moreover, the EC50 in assay [2] stood at 10 nM.
`COc1nc(N2CCc3c(c(C(=O)NCc4ccc(NC(=O)N(C)C)cc4)nn3C(C)C)C2)ccc1[C@@]1(C)CCCNC1=O` [Example 192, (R)-N-(4-(3,3-dimethylureido)benzyl)-1-isopropyl-5-(6-methoxy-5-(3-methyl-2-oxopiperidin-3-yl)pyridin-2-yl)-4,5,6,7-tetrahydro-1H-pyrazolo[4,3-c]pyridine-3-carboxamide]: in assay [1] (Homo sapiens, 48 h), the IC50 is 6440 nM. The EC50 in assay [2] came to 1670 nM.
Compound `CCOC(=O)Nc1ccc(CNC(=O)c2nn(C(C)C)c3c2CN(c2ccc(C(=O)N(C)C)cn2)CC3)cc1` [Example 236, Ethyl (4-((5-(5-(dimethylcarbamoyl)pyridin-2-yl)-1-isopropyl-4,5,6,7-tetrahydro-1H-pyrazolo[4,3-c]pyridine-3-carboxamido)methyl)phenyl)carbamate] returned an IC50 in assay [1] (48 hours) of 254 nM. Further, the EC50 in assay [2] worked out at 17 nM.
In the case of `CCn1nc(C(=O)NCc2ccc(NC(=O)N(C)C)cc2)c2c1C(C)(C)CN(c1ccc(C(=O)N(C)C)cn1)C2` [Example 238, 5-(5-(dimethylcarbamoyl)pyridin-2-yl)-N-(4-(3,3-dimethylureido)benzyl)-1-ethyl-7,7-dimethyl-4,5,6,7-tetrahydro-1H-pyrazolo[4,3-c]pyridine-3-carboxamide], the IC50 in assay [1] (Homo sapiens, 48 h) was 9 nM. The EC50 in assay [2] was 2 nM.
For `CC(C)n1nc(C(=O)NCc2ccc(NC(=O)N(C)C)cc2)c2c1C(C)(C)CN(c1ccc(C(=O)N(C)C)cn1)C2` [Example 247, 5-(5-(dimethylcarbamoyl)pyridin-2-yl)-N-(4-(3,3-dimethylureido)benzyl)-1-isopropyl-7,7-dimethyl-4,5,6,7-tetrahydro-1H-pyrazolo[4,3-c]pyridine-3-carboxamide], in that order: 9 nM and 1 nM.
For the compound `CN(C)C(=O)Nc1ccc(CNC(=O)c2nn(CC3CC(F)(F)C3)c3c2CN(c2ccc(C(=O)N(C)C)cn2)CC3)cc1` [Example 248, 1-((3,3-difluorocyclobutyl)methyl)-5-(5-(dimethylcarbamoyl)pyridin-2-yl)-N-(4-(3,3-dimethylureido)benzyl)-4,5,6,7-tetrahydro-1H-pyrazolo[4,3-c]pyridine-3-carboxamide], the IC50 in assay [1] (Homo sapiens, 48 h) came out at 131 nM. For the same compound, the concentration for a half-maximal effect (EC50) in assay [2] worked out at 35 nM.
The corresponding values for `CN(C)C(=O)Nc1ccc(CN2CCCn3nc4c(c3C2=O)CN(c2ccc(C(=O)N(C)C)cn2)CC4)cc1` [Example 252, 6-(10-(4-(3,3-Dimethylureido)benzyl)-11-oxo-1,3,4,7,8,9,10,11-octahydro-2H-pyrido[4′,3′:3,4]pyrazolo[1,5-a][1,4]diazepin-2-yl)-N,N-dimethylnicotinamide] are 1130 nM and 385 nM.
For `CN(C)C(=O)Nc1ccc(CNC(=O)c2nn(CC(C)(C)C)c3c2CN(c2ccc(C(=O)N(C)C)cn2)CC3)cc1` [Example 253, 5-(5-(dimethylcarbamoyl)pyridin-2-yl)-N-(4-(3,3-dimethylureido)benzyl)-1-neopentyl-4,5,6,7-tetrahydro-1H-pyrazolo[4,3-c]pyridine-3-carboxamide], in that order: 126 nM and 7 nM.
With `CN(C)C(=O)Nc1ccc(CNC(=O)c2nn(C3CCCOC3)c3c2CN(c2ccc(C(=O)N(C)C)cn2)CC3)cc1` (stereo not drawn) [Example 254, 5-(5-(dimethylcarbamoyl)pyridin-2-yl)-N-(4-(3,3-dimethylureido)benzyl)-1-(tetrahydro-2H-pyran-3-yl)-4,5,6,7-tetrahydro-1H-pyrazolo[4,3-c]pyridine-3-carboxamide], the IC50 in assay [1] (Homo sapiens, 48 h) stood at 180 nM. Besides, the EC50 in assay [2] came to 22 nM.
The corresponding values for `CN(C)C(=O)Nc1ccc(CN2CCn3nc4c(c3C2=O)CN(c2ccc(C(=O)N(C)C)cn2)CC4)cc1` [Example 256, 6-(9-(4-(3,3-dimethylureido)benzyl)-10-oxo-3,4,7,8,9,10-hexahydropyrido[4′,3′:3,4]pyrazolo[1,5-a]pyrazin-2(1H)-yl)-N,N-dimethylnicotinamide] are 190 nM and 28 nM.
The compound `CN(C)C(=O)Nc1ccc(CNC(=O)c2nn(CC3CCC3)c3c2CN(c2ccc(C(=O)N(C)C)cn2)CC3)cc1` [Example 257, 1-(cyclobutylmethyl)-5-(5-(dimethylcarbamoyl)pyridin-2-yl)-N-(4-(3,3-dimethylureido)benzyl)-4,5,6,7-tetrahydro-1H-pyrazolo[4,3-c]pyridine-3-carboxamide] displayed an IC50 in assay [1] (Homo sapiens, 48 h) of 272 nM. In assay [2], the EC50 was determined as 15 nM.
The corresponding values for `C[C@H]1Cc2c(c(C(=O)NCc3ccc(NC(=O)N(C)C)cc3)nn2C)CN1c1ccc(-c2nccn2C)cn1` [Example 259, (S)-N-(4-(3,3-dimethylureido)benzyl)-1,6-dimethyl-5-(5-(1-methyl-1H-imidazol-2-yl)pyridin-2-yl)-4,5,6,7-tetrahydro-1H-pyrazolo[4,3-c]pyridine-3-carboxamide] are 30 nM and 2 nM.
The corresponding values for `CCC(C)(C)n1nc(C(=O)NCc2ccc(NC(=O)N(C)C)cc2)c2c1CCN(c1ccc(C(=O)N(C)C)cn1)C2` [Example 261, 5-(5-(dimethylcarbamoyl)pyridin-2-yl)-N-(4-(3,3-dimethylureido)benzyl)-1-(tert-pentyl)-4,5,6,7-tetrahydro-1H-pyrazolo[4,3-c]pyridine-3-carboxamide] are over 30000 nM and 3570 nM.
For `CC(C1CCC1)n1nc(C(=O)NCc2ccc(NC(=O)N(C)C)cc2)c2c1CCN(c1ccc(C(=O)N(C)C)cn1)C2` (stereo not drawn) [Example 263, 1-(1-cyclobutylethyl)-5-(5-(dimethylcarbamoyl)pyridin-2-yl)-N-(4-(3,3-dimethylureido)benzyl)-4,5,6,7-tetrahydro-1H-pyrazolo[4,3-c]pyridine-3-carboxamide], in that order: 130 nM and 9 nM.
In assay [1] (Homo sapiens, 48 h), `CN(C)C(=O)Nc1ccc(CNC(=O)c2nn(C3CCCC3)c3c2CN(c2ccc(C(=O)N(C)C)cn2)CC3)cc1` [Example 264, 1-cyclopentyl-5-(5-(dimethylcarbamoyl)pyridin-2-yl)-N-(4-(3,3-dimethylureido)benzyl)-4,5,6,7-tetrahydro-1H-pyrazolo[4,3-c]pyridine-3-carboxamide] gave an IC50 of 131 nM. Moreover, in assay [2], the 50% effective concentration (EC50) was determined as 7 nM.
The corresponding values for `CC(C)n1nc(C(=O)NCc2ccc(NC(=O)N(C)C)cc2)c2c1C1(CC1)CN(c1ccc(C(=O)N(C)C)cn1)C2` [Example 266, 5′-(5-(dimethylcarbamoyl)pyridin-2-yl)-N-(4-(3,3-dimethylureido)benzyl)-1′-isopropyl-1′,4′,5′,6′-tetrahydrospiro[cyclopropane-1,7′-pyrazolo[4,3-c]pyridine]-3′-carboxamide] are 45 nM and 3 nM.
For `CC(n1nc(C(=O)NCc2ccc(NC(=O)N(C)C)cc2)c2c1CCN(c1ccc(C(=O)N(C)C)cn1)C2)C(C)(C)C` (stereo not drawn) [Example 278, 1-(3,3-dimethylbutan-2-yl)-5-(5-(dimethylcarbamoyl)pyridin-2-yl)-N-(4-(3,3-dimethylureido)benzyl)-4,5,6,7-tetrahydro-1H-pyrazolo[4,3-c]pyridine-3-carboxamide], in that order: 253 nM and 5 nM.
For `CC(C)Cn1nc(C(=O)NCc2ccc(NC(=O)N(C)C)cc2)c2c1CCN(c1ccc(C(=O)N(C)C)cn1)C2` [Example 279, 5-(5-(dimethylcarbamoyl)pyridin-2-yl)-N-(4-(3,3-dimethylureido)benzyl)-1-isobutyl-4,5,6,7-tetrahydro-1H-pyrazolo[4,3-c]pyridine-3-carboxamide], in that order: 94 nM and 9 nM.
